Assay results: patent US6541463B1, “Inhibitors of type 5 and type 3 17β-hydroxysteroid dehydrogenase and methods for their use” (Endorecherche, Inc., priority 1998, dated 2003)
Read-outs that look alike come from different tables or passages of the source.

Target: T1, human type 5 17β-hydroxysteroid dehydrogenase (Homo sapiens, UniProt P42330)
T1 construct: screen again a human placental λgt11 cDNA to get the full length cDNA clone; expressed in transfected cells; host or cells: human embryonal kidney 293 cells (pCMV / pCMV-neo vector)
T1 sequence (P42330 1-323): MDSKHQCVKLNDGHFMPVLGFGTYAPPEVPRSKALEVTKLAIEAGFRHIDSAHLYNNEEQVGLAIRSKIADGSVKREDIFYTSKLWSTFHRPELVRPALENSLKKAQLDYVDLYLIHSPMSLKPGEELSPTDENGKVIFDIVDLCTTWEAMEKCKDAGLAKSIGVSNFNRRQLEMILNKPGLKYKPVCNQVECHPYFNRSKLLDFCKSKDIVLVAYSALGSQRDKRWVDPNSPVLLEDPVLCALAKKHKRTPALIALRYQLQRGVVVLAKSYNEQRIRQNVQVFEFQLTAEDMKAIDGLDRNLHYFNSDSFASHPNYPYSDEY
Assay: Inhibition of human type 5 17β-HSD activity in transfected 293 cells
Type: cell-based
How it was run: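 Human type 5 17β-HSD cDNA in a CMV-promoter vector, transfected by calcium phosphate (1 to 10 μg plasmid per 10^6 cells) into 293 cells grown in DMEM with 10% FBS at 37 °C.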

[1] = Table 4′, read-out: Inhibition Type V 17β-HSD IC50
[2] = Inhibition Type V 17β-HSD IC50, Table 4′

Row | SMILES | IC50 [1] [nM] | further results
1 | CC1(C)CCC2(CCC3C4CCc5c(cc(Cl)c(OS(C)(=O)=O)c5Cl)C4CCC32C)OC1=O (centres unmarked) [EM-1392-CS] | 19 | –
2 | COCCOc1cc2c(cc1F)C1CCC3(C)C(CCC34CCC(C)(C)C(=O)O4)C1CC2 (centres unmarked) [EM-1393-CS] | 16 | –
3 | COc1ccc2c(c1)C(=O)CC1C2CC[C@@]2(C)C1CC[C@@]21CCC(C)(C)C(=O)O1 (some centres unmarked) [EM-1394] | 9 | –
4 | COCCOc1cc2c(cc1C#N)C1CC[C@@]3(C)C(CC[C@@]34CCC(C)(C)C(=O)O4)C1CC2 (some centres unmarked) [EM-1396] | – | IC50 [2]: 13 nM
5 | CC1(C)CCC2(CCC3C4CCc5cc(C(=O)OCc6ccccc6)ccc5C4CCC32C)OC1=O (centres unmarked) [EM-1398] | – | Inhibition Type V 17β-HSD % Inh. at 3 · 10^−6 (Table 4′): 89%; Inhibition Type V 17β-HSD % Inh. at 3 · 10^−7 (Table 4′): 70%
6 | CC1(C)CC[C@@]2(CCC3C4CCc5cc(C(=O)O)ccc5C4CC[C@@]32C)OC1=O (stereo partly drawn) [EM-1401, 3-Carboxy-1,3,5(10)-estratrien-17(R)-spiro-2′-(5′,5′-dimethyl-6′-oxo)tetrahydropyran] | 4 ± 1.5 | –
7 | COCCOc1cc2c(cc1C(=O)OC)C1CC[C@@]3(C)C(CC[C@@]34CCC(C)(C)C(=O)O4)C1CC2 (stereo partly drawn) [EM-1402-CS, 2-Carbomethoxy-3-(2″-methoxyethyloxy)-1,3,5(10)-estratrien 17(R)-spiro-2′-(5′,5′-dimethyl-6′-oxo)tetrahydropyran] | 12 | –
8 | CN(C)C(=O)c1ccc2c(c1)CCC1C2CCC2(C)C1CCC21CCC(C)(C)C(=O)O1 (centres unmarked) [EM-1403] | 7.2 ± 1.6 | –
9 | CC1(C)CC[C@@]2(CCC3C4CCc5cc(C(N)=O)ccc5C4CCC32C)OC1=O (some centres unmarked) [EM-1404] | – | IC50 [2]: 3.2 ± 1.5 nM
10 | COCCOc1cc2c(cc1C(=O)O)C1CCC3(C)C(CCC34CCC(C)(C)C(=O)O4)C1CC2 [EM-1405, 2-Carboxy-3-(2″-methoxyethyloxy)-1,3,5(10)-estratrien-17(R)-spiro-2′-(5′,5′-dimethyl-6′-oxo)tetrahydropyran] | 23 | –
11 | CC1(C)CC[C@@]2(CCC3C4CCc5cc6oncc6cc5C4CC[C@@]32C)OC1=O (stereo partly drawn) [EM-1407-CS, 1,3,5(10)-estratrien-(2,3-oximino)-17(R)-spiro-2′-(5′,5′-dimethyl-6′-oxo)tetrahydropyran] | 12 ± 3 | –
12 | COCCOc1ccc2c(c1)C(=O)CC1C2CCC2(C)C1CCC21CCC(C)(C)C(=O)O1 (centres unmarked) [EM-1408-CS] | 5.5 ± 1 | –
13 | COc1cc2c(cc1C(F)(F)F)C1CCC3(C)C(CCC34CCC(C)(C)C(=O)O4)C1CC2 [EM-1409, 3-Methoxy-2-trifluoromethyl-1,3,5(10)-estratrien-17(R)-spiro-2′-(5′,5′-dimethyl-6′-oxo)tetrahydropyran] | 170 ± 70 | –
14 | COc1cc2c(cc1C)C1CCC3(C)C(CCC34CCC(C)(C)C(=O)O4)C1CC2 (centres unmarked) [EM-1412-CS] | 54 | –
15 | COCCOc1cc2c(cc1C(=O)N(C)C)C1CCC3(C)C(CCC34CCC(C)(C)C(=O)O4)C1CC2 (centres unmarked) [EM-1413-CS] | 17 | –
16 | COCCOc1cc2c(cc1C(N)=O)C1CC[C@@]3(C)C(CC[C@@]34CCC(C)(C)C(=O)O4)C1CC2 (stereo partly drawn) [EM-1424, 2-Carbamoyl-3-(2″-methoxyethyloxy)-1,3,5(10)-estratrien 17(R)-spiro-2′-(5′,5′-dimethyl-6′-oxo)tetrahydropyran] | 9.5 | –
17 | COCCOc1cc2c(cc1C(F)(F)F)[C@H]1CC[C@@]3(C)[C@@H](CC[C@@]34CCC(C)(C)C(=O)O4)[C@@H]1CC2 [EM-1438, 3-(2′-Methoxyethoxy)-2-trifluoromethyl-1,3,5(10)-estratrien-17(R)-spiro-2′-(5′,5′-dimethyl-6′-oxo)tetrahydropyran] | – | Inhibition Type V 17β-HSD % Inh. at 3 · 10^−6 (Table 4′): 95.2%; Inhibition Type V 17β-HSD % Inh. at 3 · 10^−7 (Table 4′): 90.6%
18 | CC1(C)CCC2(CCC3C4CCc5cc(O)c(C#N)cc5C4CCC32C)OC1=O (centres unmarked) [EM-01645] | 4.5 ± 0.3 | –
19 | CC1(C)CCC2(CCC3C4CCc5cc(O)c(C(N)=O)cc5C4CCC32C)OC1=O (centres unmarked) [EM-01660] | 5.6 ± 0.4 | –
20 | CN(C)C(=O)c1cc2c(cc1O)CCC1C2CCC2(C)C1CCC21CCC(C)(C)C(=O)O1 (centres unmarked) [EM-01661-B] | 19.2 ± 1 | –
21 | COC(=O)c1cc2c(cc1O)CCC1C2CCC2(C)C1CCC21CCC(C)(C)C(=O)O1 (centres unmarked) [EM-01662] | 35 ± 5 | –
22 | CC12CCC3c4ccc(O)cc4CCC3C1CCC21CC=CC(=O)O1 [PB-132-140, 3-hydroxy-1,3,5(10)-estratrien-17(R)-spiro-2′-(4′,5′-dihydro-6′-oxo)pyran] | 49 ± 5 | –
23 | CC1CC(=O)OC2(CCC3C4CCc5cc(O)ccc5C4CCC32C)C1 [PB-132-142, 3-Hydroxy-1,3,5(10)-estratrien-17(R)-spiro-2′-(4′-methyl-6′-oxo)tetrahydropyran] | 19 ± 1.5 | –
24 | COC(=O)C1CCC2(CCC3C4CCc5cc(O)ccc5C4CCC32C)OC1=O [PB-132-146, 3-Hydroxy-1,3,5(10)-estratrien-17(R)-2′-(5′-methoxycarbonyl-6′-oxo)tetrahydropyran] | 72 ± 3 | –
25 | C=CCC1CCC2(CCC3C4CCc5cc(O)ccc5C4CCC32C)OC1=O [PB-132-152, 3-Hydroxy-1,3,5(10)-estratrien-17(R)-2′-(5′-allyl-6′-oxo)tetrahydropyran] | 107 ± 9 | –
26 | CC(=O)O[C@]1(C(C)=O)CCC2C3C=C(C)C4=CC(=O)CC[C@]4(C)C3CC[C@@]21C (some centres unmarked) [megestrol acetate, reference compound] | – | inhibition of type 5 17β-hydroxysteroid dehydrogenase (in words): inhibit that type 5 enzyme; IC50 (read-out: Inhibition Type V 17β-HSD IC50): 17.4 ± 2.8 nM
